Measurements: patent US10253000B2, “Pyridazin-3(2H)-one derivatives as monoamine oxidase selective isoform B inhibitors” (UNIVERSIDADE DE VIGO, priority 2014, dated 2019)
Where two headings read alike, the source gives them in different places. Marks after values point to notes of the source that are not given here.

Key:
human recombinant MAO-B = molecular target: T1, human recombinant MAO-B (Homo sapiens, UniProt P27338); experiment: Determination of MAO isoforms activity (Amplex Red, p-tyramine), MAO-B; assay type: biochemical; conditions: for S.I. Selectivity index hMAO-B = IC50 (hMAO-A)/IC50 (hMAO-B): bounds calculated taking the highest concentration studied (100 μM or 1 mM) as IC50; for IC50: read-out: IC50 hMAO-B
T1 construct: purchased Sigma-Aldrich Química S.A., Alcobendas, Spain; host or cells: insect cells (BTI-TN-5B1-4) infected with recombinant baculovirus
T1 sequence (P27338 1-520): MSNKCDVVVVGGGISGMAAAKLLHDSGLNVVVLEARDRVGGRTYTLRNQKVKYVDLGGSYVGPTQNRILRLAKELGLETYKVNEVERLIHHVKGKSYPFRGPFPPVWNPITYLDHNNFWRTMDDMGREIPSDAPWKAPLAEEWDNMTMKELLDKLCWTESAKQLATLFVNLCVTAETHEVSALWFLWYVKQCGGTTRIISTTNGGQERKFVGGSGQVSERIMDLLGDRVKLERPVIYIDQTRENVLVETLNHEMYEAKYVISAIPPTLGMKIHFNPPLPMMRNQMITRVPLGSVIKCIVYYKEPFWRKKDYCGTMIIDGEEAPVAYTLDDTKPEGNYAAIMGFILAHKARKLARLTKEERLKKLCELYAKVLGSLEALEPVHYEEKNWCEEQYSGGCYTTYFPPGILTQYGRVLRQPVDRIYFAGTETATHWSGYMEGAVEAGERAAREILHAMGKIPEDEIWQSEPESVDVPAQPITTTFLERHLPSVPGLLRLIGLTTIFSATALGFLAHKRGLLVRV

human recombinant MAO-A = molecular target: T2, human recombinant MAO-A (Homo sapiens, UniProt P21397); experiment: Determination of MAO isoforms activity (Amplex Red, p-tyramine), MAO-A; assay type: biochemical; conditions: read-out: IC50 hMAO-A
T2 construct: purchased Sigma-Aldrich Química S.A., Alcobendas, Spain; host or cells: insect cells (BTI-TN-5B1-4) infected with recombinant baculovirus
T2 sequence (P21397 1-527): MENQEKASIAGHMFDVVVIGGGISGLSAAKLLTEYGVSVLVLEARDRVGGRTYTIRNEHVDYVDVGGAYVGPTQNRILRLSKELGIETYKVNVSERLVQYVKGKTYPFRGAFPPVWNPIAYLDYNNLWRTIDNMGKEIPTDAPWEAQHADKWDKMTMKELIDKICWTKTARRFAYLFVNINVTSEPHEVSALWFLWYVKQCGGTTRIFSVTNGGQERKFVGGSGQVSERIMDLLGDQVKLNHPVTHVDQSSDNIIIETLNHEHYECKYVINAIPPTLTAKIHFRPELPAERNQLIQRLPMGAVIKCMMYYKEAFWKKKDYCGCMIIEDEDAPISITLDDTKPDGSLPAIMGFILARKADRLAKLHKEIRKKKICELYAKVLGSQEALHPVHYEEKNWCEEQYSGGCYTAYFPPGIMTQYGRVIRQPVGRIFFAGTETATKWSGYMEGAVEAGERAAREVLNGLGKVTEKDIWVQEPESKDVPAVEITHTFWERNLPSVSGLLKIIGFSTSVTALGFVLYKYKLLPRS

[1] = human recombinant MAO-B, p-tyramine 1 mM, mean ± spread of 5 experiments

`O=c1c(CSC(=S)N2CCCC2)ccnn1Cc1ccccc1` [IIIc3, 1-benzyl-6-oxo-1,6-dihydropyridazin-5-ylmethyl Pyrrolidin-1-ylcarbodithioate] was tested, and the “S.I. Selectivity index hMAO-B = IC50 (hMAO-A)/IC50 (hMAO-B)” value (shortened to “S.I. Selectivity index hMAO-B = IC50”) (human recombinant MAO-B) was >2.9^b, the IC50 (human recombinant MAO-B; [1]) was 34 ± 2.26 µM and the IC50 (human recombinant MAO-A) was > 100 µM.

For `O=c1c(CSC(=S)N2CCOCC2)ccnn1Cc1ccccc1` [IIIc5, 1-benzyl-6-oxo-1,6-dihydropyridazin-5-ylmethyl Morpholin-4-ylcarbodithioate], the “S.I. Selectivity index hMAO-B = IC50” value (human recombinant MAO-B) was >4.2^b, the IC50 (human recombinant MAO-B; [1]) was 24.1 ± 1.6 µM and the IC50 (human recombinant MAO-A) was > 100 µM.

With `O=C(c1ccccc1)N1CCN(C(=S)SCc2ccnn(Cc3ccccc3)c2=O)CC1` [IIIc11, 1-benzyl-6-oxo-1,6-dihydropyridazin-5-ylmethyl 4-benzoylpiperazin-1-ylcarbodithioate] the IC50 (human recombinant MAO-B) was > 100 µM and the IC50 (human recombinant MAO-A) was > 100 µM.

In the case of `CCN(CC)C(=S)SCc1cnn(Cc2ccccc2)c(=O)c1` [IIc2, 1-benzyl-6-oxo-1,6-dihydropyridazin-4-ylmethyl N,N-diethyldithiocarbamate], the “S.I. Selectivity index hMAO-B = IC50” value (human recombinant MAO-B) is reported as >2.3^b, the IC50 (human recombinant MAO-B; [1]) is reported as 44.2 ± 2.95 µM and the IC50 (human recombinant MAO-A) is reported as > 100 µM.

For `O=c1cc(CSC(=S)N2CCCC2)cnn1Cc1ccccc1` [IIc3, 1-benzyl-6-oxo-1,6-dihydropyridazin-4-ylmethyl Pyrrolidin-1-ylcarbodithioate], the “S.I. Selectivity index hMAO-B = IC50” value (human recombinant MAO-B) was 10.3 and the IC50 (human recombinant MAO-B; [1]) was 9.68 ± 0.65 µM.

`O=c1cc(CSC(=S)N2CCCCC2)cnn1Cc1ccccc1` [IIc4, 1-benzyl-6-oxo-1,6-dihydropyridazin-4-ylmethyl Piperidin-1-ylcarbodithioate] was tested, and the “S.I. Selectivity index hMAO-B = IC50” value (human recombinant MAO-B) was >15^b, the IC50 (human recombinant MAO-B; [1]) was 6.71 ± 0.45 µM and the IC50 (human recombinant MAO-A) was > 100 µM.

In the case of `O=c1cc(CSC(=S)N2CCOCC2)cnn1Cc1ccccc1` [IIc5, 1-benzyl-6-oxo-1,6-dihydropyridazin-4-ylmethyl Morpholin-4-ylcarbodithioate], the IC50 (human recombinant MAO-A) is reported as > 100 µM.

For `O=C(c1ccccc1)N1CCN(C(=S)SCc2cnn(Cc3ccccc3)c(=O)c2)CC1` [IIc11, 1-benzyl-6-oxo-1,6-dihydropyridazin-4-ylmethyl 4-benzoylpiperazin-1-ylcarbodithioate], the IC50 (human recombinant MAO-B) was > 100 µM and the IC50 (human recombinant MAO-A) was > 100 µM.

`Cn1nc(CCSC(=S)N2CCCCC2)ccc1=O` [Ia15, 2-(1-methyl-6-oxo-1,6-dihydropyridazin-3-yl)ethyl Piperidin-1-ylcarbodithioate] was tested, and the “S.I. Selectivity index hMAO-B = IC50” value (human recombinant MAO-B) was >8.4^b, the IC50 (human recombinant MAO-B; [1]) was 11.9 ± 0.53 µM and the IC50 (human recombinant MAO-A) was > 100 µM.

`Cn1nc(CCCSC(=S)N2CCCC2)ccc1=O` [Ia25, 3-(1-methyl-6-oxo-1,6-dihydropyridazin-3-yl)propyl Pyrrolidin-1-ylcarbodithioate] was tested, and the “S.I. Selectivity index hMAO-B = IC50” value (human recombinant MAO-B) was >1.5^b, the IC50 (human recombinant MAO-B; [1]) was 66.5 ± 4.43 µM and the IC50 (human recombinant MAO-A) was > 100 µM.

With `Cc1cc(=O)n(C)nc1CSC(=S)N1CCCC1` [Id3, 1,4-dimethyl-6-oxo-1,6-dihydropyridazin-3-ylmethyl Pyrrolidin-1-ylcarbodithioate] the IC50 (human recombinant MAO-B) was > 1000 µM and the IC50 (human recombinant MAO-A) was > 100 µM.

In the case of `Cc1cc(=O)n(C)nc1CSC(=S)N1CCCCC1` [Id4, 1,4-dimethyl-6-oxo-1,6-dihydropyridazin-3-ylmethyl Piperidin-1-ylcarbodithioate], the “S.I. Selectivity index hMAO-B = IC50” value (human recombinant MAO-B) is reported as 13.4 and the IC50 (human recombinant MAO-B; [1]) is reported as 7.48 ± 0.34 µM.

With `Cc1cc(=O)n(C)nc1CSC(=S)N1CCOCC1` [Id5, 1,4-dimethyl-6-oxo-1,6-dihydropyridazin-3-ylmethyl morpholin-4-ylcarbodithioate] the “S.I. Selectivity index hMAO-B = IC50” value (human recombinant MAO-B) was 2.6 and the IC50 (human recombinant MAO-B; [1]) was 38.6 ± 1.74 µM.

In the case of `Cc1cc(=O)n(C)nc1CSC(=S)N1CCN(C(=O)c2ccccc2)CC1` [Id11, 1,4-dimethyl-6-oxo-1,6-dihydropyridazin-3-ylmethyl 4-benzoylpiperazin-1-ylcarbodithioate], the “S.I. Selectivity index hMAO-B = IC50” value (human recombinant MAO-B) is reported as 2.2 and the IC50 (human recombinant MAO-B; [1]) is reported as 44.5 ± 2 µM.
